“And” between values parts separate entries of the source, which are not always exact repeats. Identical values can stand only once.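 Exposure lasted 48 hours, with cells grown in 96-well plates and compounds tested at five concentrations. GI50: concentration for 50% inhibition of growth. At the TGI there is no net growth.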
What was measured:
Experiment in all cases: NCI anticancer screen, dose series, 48 h
OVCAR-8 ovarian = test system: OVCAR-8 ovarian
DLD-1 colon = test system: DLD-1 colon
UACC-62 melanoma = test system: UACC-62 melanoma
UACC-257 melanoma = test system: UACC-257 melanoma
SK-MEL-5 melanoma = test system: SK-MEL-5 melanoma
MALME-3M melanoma = test system: MALME-3M melanoma
OVCAR-4 ovarian = test system: OVCAR-4 ovarian
M19-MEL melanoma = test system: M19-MEL melanoma
MDA-MB-231 breast = test system: MDA-MB-231 breast
BT-549 breast = test system: BT-549 breast

SMILES	GI50 (OVCAR-8 ovarian) [µM]	TGI (OVCAR-8 ovarian)	GI50 (DLD-1 colon) [µM]	TGI (DLD-1 colon)	GI50 (UACC-62 melanoma)	TGI (UACC-62 melanoma) [µM]	GI50 (UACC-257 melanoma)	TGI (UACC-257 melanoma) [µM]	GI50 (SK-MEL-5 melanoma)	TGI (SK-MEL-5 melanoma) [µM]	GI50 (MALME-3M melanoma) [µM]	TGI (MALME-3M melanoma) [µM]	GI50 (OVCAR-4 ovarian) [µM]	TGI (OVCAR-4 ovarian)	TGI (M19-MEL melanoma)	GI50 (MDA-MB-231 breast) [µM]	TGI (MDA-MB-231 breast) [µM]	GI50 (BT-549 breast) [µM]	TGI (BT-549 breast) [µM]	GI50 (M19-MEL melanoma) [µM]
NC(=O)c1ccc2c(c1)-c1nc-2nc2[n-]c(nc3nc(nc4[n-]c(n1)c1ccc(C(N)=O)cc41)-c1ccc(C(N)=O)cc1-3)c1ccc(C(N)=O)cc21.[Co+2]	> 50	> 50 µM	43.5	> 50 µM	> 50 µM	> 50	> 50 µM	> 50	> 50 µM	> 50	> 50	> 50	> 50	> 50 µM						
CC(C)(CN1C(=O)C(Cl)=C(Cl)C1=O)CN1C(=O)C(Cl)=C(Cl)C1=O		14.7 µM		9.82 µM		29.5		29		51.6		16.7		43.4 µM	25 µM					
O=C(O/N=C1\CCCC\C1=C/c1ccccc1)c1ccc([N+](=O)[O-])cc1		> 100 µM		> 100 µM		> 100						> 100		> 100 µM	> 100 µM					
C[C@H]1CC[P+](Cc2ccccc2)(c2ccccc2)C1 (stereo not given in full)		> 100 µM		> 100 µM		> 100		80.2		89.9		> 100		> 100 µM	> 100 µM					
O=S1(=O)N2CN3CN(C2)CN1C3	30.8	110 µM	30.1	96.8 µM and 97.5 µM		49.2		94.3		124		324		80.8 µM	337 µM					
O=C(c1ccc(O)cc1O)C1C(c2ccc(O)cc2)OC(c2ccc(O)cc2)C1C(=O)c1ccc(O)cc1O (stereo not given)		56.8 µM		> 100 µM				39.7		29.6		31.2		> 100 µM	36.5 µM					
CCCNC(=O)Nc1c([N+](=O)[O-])cc(C(F)(F)F)cc1[N+](=O)[O-]		> 100 µM				> 100		> 100		> 100				73.7 µM	69.1 µM					
Nc1ccc2n[se]nc2c1		> 100 µM		> 100 µM		> 100		> 100		> 100		> 100		> 100 µM	> 100 µM					
COc1ccc2nc3cc(Cl)ccc3c(NCCCNCCO)c2c1	0.415	2.45 µM			0.807 µM	2.54	1.82 µM	3.48	1.55 µM	2.93	1.21	2.82	0.484	2.87 µM		0.47	2.71	1.89	3.71	
COc1cc2c(c(OC)c1OC)-c1ccc(NN(C(=O)c3ccccc3)C(=O)c3ccccc3)c(=O)cc1[C@@H](NC(C)=O)CC2 (tested in a mixture with another compound)	3.86	42.7 µM			4.18 µM	42.1	14.4 µM	62.9	2.49 µM	11	17.6	> 100	7.06	> 100 µM		3.39	> 100	2.63	8.15	
COc1cc(/C=C/C(=O)c2cccc(-n3cc(-c4cc(OC)c(OC)c(OC)c4)[nH]c3=O)c2)cc(OC)c1OC	2.32	8.9 µM			1.87 µM	4.01	2.22 µM	5.45	2.76 µM	9.57	1.8	3.7	3.77	55.6 µM		4.19	26.3	1.52	3.43	
COc1ccc(-c2cc(=O)c3c(O)c(OC)c(OC)c(OC)c3o2)cc1OC		> 100 µM				> 100		> 100		> 100		> 100		> 100 µM			> 100		> 100	
CC1(C)CCC(Sc2ccccc2)O1 (stereo not given)		> 100 µM		> 100 µM		> 100		> 100		> 100				> 100 µM	> 100 µM					
CN1CCN(CC(=O)N(C)c2ccc(N=C(c3ccccc3)c3c(O)[nH]c4ccc(C#N)cc34)cc2)CC1	4.87	> 100 µM			4.57 µM	14.3	2.5 µM	6.2	1.59 µM	3.16	1.77	3.39	3.03	14 µM		2.66	6.32	1.68	3.69	
O=C1NC(=NCc2ccccc2Cl)S/C1=C\c1ccc2ncccc2c1	> 25	> 25 µM			17.8 µM	> 25	> 25 µM	> 25	22.4 µM	> 25	> 20.7	> 25	14.7	> 25 µM		> 25	> 25	7.86	> 25	
O=C(O)C1=C/C(=C(/c2ccccc2)c2cc(C(=O)O)c(O)c3ccccc23)c2ccccc2C1=O		> 100 µM				> 100		> 100		> 100		> 100		> 100 µM			> 100		> 100	
O=C1Nc2ccc(Br)cc2C12CC(c1ccccc1)=NN2 (stereo not given)	5.7	39.2 µM			5.38 µM	27.1	5.98 µM	> 100	3.2 µM	14.1	2.04	6.93	5.31	77.6 µM		6.19	29.5	13	74.3	
CCCCC1=CSC(c2ccccc2)=C(c2ccccc2)S1		> 100 µM		> 100 µM		> 100				> 100				> 100 µM	> 100 µM					

SMILES	GI50 (OVCAR-8 ovarian) [µM]	TGI (OVCAR-8 ovarian)	GI50 (DLD-1 colon) [µM]	TGI (DLD-1 colon)	GI50 (UACC-62 melanoma)	TGI (UACC-62 melanoma) [µM]	GI50 (UACC-257 melanoma)	TGI (UACC-257 melanoma) [µM]	GI50 (SK-MEL-5 melanoma)	TGI (SK-MEL-5 melanoma) [µM]	GI50 (MALME-3M melanoma) [µM]	TGI (MALME-3M melanoma) [µM]	GI50 (OVCAR-4 ovarian) [µM]	TGI (OVCAR-4 ovarian)	TGI (M19-MEL melanoma)	GI50 (MDA-MB-231 breast) [µM]	TGI (MDA-MB-231 breast) [µM]	GI50 (BT-549 breast) [µM]	TGI (BT-549 breast) [µM]	GI50 (M19-MEL melanoma) [µM]
COc1cc(/C=C2\C(=O)N(Cc3ccc(Cl)cc3)c3ccccc32)cc(OC)c1OC	3.4	> 45.2 µM			2.21 µM	10	6.04 µM	26.6	3.98 µM	11.9	3.73	16.3	4.35	> 49.6 µM		2.48	18.4	2.51	11.6	
COC1=C(N)C(=O)c2nc(-c3nc(C(=O)O)c(C)c(-c4ccc(OC)c(OC)c4O)c3N)ccc2C1=O		0.00226 µM and 0.022 µM and 0.0194 µM		0.0524 µM	0.00103 µM and 0.000879 µM and < 0.01 µM		0.00321 µM and 0.0122 µM and 0.0224 µM		0.00116 µM and 0.0104 µM					0.0183 µM and 0.0416 µM and 0.0515 µM	0.0224 µM and 0.0234 µM					
O=C(Nc1ccc(Oc2ccc3nc(NC(=O)c4ccco4)[nH]c3c2)cc1)Nc1cc(C(F)(F)F)ccc1F	1.26	6.92 µM			0.844 µM	5.48	2.25 µM	8.74	1.16 µM	4.74	0.699	5.31	1.25	> 13.8 µM		1.09	5.77	2.08	6.05	
O=C1NC(=S)S/C1=C\c1cn(-c2ccccc2)nc1-c1ccccc1	11.4	> 100 µM			3.36 µM	15.1	13.2 µM	73.9	3.19 µM	14.2	3.84	13.1	8.14	> 100 µM		10.1	33.3	5.2	23.7	
CN=C(N)c1ccc(N=C(N)c2ccc(-c3ccc(C(N)=Nc4ccc(C(N)=NC)cc4)cc3)cc2)cc1	52.1	> 100 µM			30.5 µM	> 100	> 100 µM	> 100	33.6 µM	> 100	25.5	78.7	> 100	> 100 µM		> 100	> 100	> 100	> 100	
CCOCC1(COCC)CCC(c2[nH]ncc2CN(C)CCNC)CC1	> 100	> 100 µM			> 100 µM	> 100	> 100 µM	> 100	> 100 µM	> 100	> 100	> 100	> 100	> 100 µM		> 100	> 100	> 100	> 100	
Cn1c(CBr)nc2c1C(=O)c1nc(CBr)[nH]c(=O)c1C2=O		> 100 µM		> 100 µM		> 100				> 100					68.6 µM					
COc1cc2cc(Oc3ccc(NC(=O)Nc4cc(C(F)(F)F)cc(C(F)(F)F)c4)cc3)c(C)nc2cc1OCCN1CCOCC1	1.67	12.8 µM			1.67 µM	6.9	1.4 µM	4.24	0.885 µM	1.66	1.2	3.79	1.88	6.95 µM		1.7	6.45	1.87	7.35	
COc1cccc2c1-c1nc(N)c3c(OC)cccc3c1C2=O		> 100 µM				> 100		> 100		> 100		> 100		> 100 µM			> 100		> 100	
COc1cc2oc(-c3cccc(C(=O)Nc4ccc(Cl)cc4)c3)cc(=O)c2c(OC)c1OC	3.44	> 100 µM			2.5 µM	8.65	2.53 µM	5.72	1.28 µM	2.68	2.48	7.26	3.05	> 100 µM		1.58	> 100	1.18	> 100	
O=C1NC(=NCCc2ccc(F)cc2)S/C1=C\c1ccc2ncccc2c1	> 25	> 25 µM			> 25 µM	> 25	> 25 µM	> 25	> 25 µM	> 25	> 25	> 25	> 25	> 25 µM		> 25	> 25	> 25	> 25	
O=C1CC2OCC=C3CN4CCC56c7ccccc7N1C5C2C3CC46O (stereo not given)		> 100 µM				> 100		> 100		> 100		> 100		> 100 µM			> 100		> 100	
O=C(CS(=O)(=O)c1nc2ccccc2nc1-c1ccccc1)Nc1ccc(F)cc1	94.3	> 100 µM			40.1 µM	> 100	> 100 µM	> 100	23.9 µM	94.6	80.7	> 100	21.6	49.4 µM		34.7	> 100	29.1	> 100	
CCCn1c2c(c3ccccc3c1=O)C(=O)c1ccccc1-2		> 100 µM				> 100		> 100		> 100		> 100		> 100 µM			> 100		> 100	
O=C(Nc1ccc(Oc2ccc(F)cc2)cc1)[C@@H]1C[C@@H](Cc2ccc(F)cc2)CN1C(=O)Cn1ccnn1	7.16	31.9 µM			6.14 µM	20.9	8.04 µM	24.9	9.12 µM	22.6	9.49	26.1	6.29	> 69.9 µM		8.91	26.6	11.5	30	
O=C1CC(c2c[nH]c3ccc(F)cc23)C(=O)N1 (stereo not given)	> 100	> 100 µM			> 100 µM	> 100	> 100 µM	> 100	> 100 µM	> 100	> 100	> 100	> 100	> 100 µM		> 100	> 100	> 100	> 100	
NC1NC=NC2C1N=CN2C1OC(CO)C2[O][Sn][O]C21 (stereo not given)	> 100	> 100 µM			> 100 µM	> 100	> 100 µM	> 100	> 100 µM	> 100	> 100	> 100	> 100	> 100 µM	> 100 µM					> 100
O=[N+]([O-])c1ccc(C2=Nc3ccccc3S(=O)C(c3ccccc3)C2)cc1 (stereo not given)		> 100 µM		38.4 µM		29.9		55.3				> 100		42 µM	29.6 µM					

Reference: PubChem BioAssay (NCI)
